Here are results for three compounds from ChEMBL document CHEMBL1135808, “A new type of mixed anhydride and its applications to the synthesis of 7-substituted 8-chloro-5,5-dioxoimidazo[1,2-b][1,4,2]benzodithiazines with in vitro antitumor activity” (2002).

Type in all cases: functional
Conditions in all cases: Homo sapiens, read-out: Log LC50 (the source's name) (converted)

One assay concerns MDA-MB-435. Kind of assay: (§1) Log of molar concentration leading to 50% cell death against breast cancer MDA-MB-435 cell line was reported.
The test system of a further assay is K562. The experiment in a line: Log of molar concentration leading to 50% cell death against leukemia K-562 cell line was reported.
The test system of a further assay is NCI/ADR-RES. Kind of assay: Log of molar concentration leading to 50% cell death against breast cancer NCI/ADR-RES cell line was reported.
Assay [1] in a line: as §1.

On to `O=C(Nc1nccs1)c1cc2c(cc1Cl)Sc1nccn1S2(=O)=O`, for which the CC50 was 57.5 µM in the assay on MDA-MB-435 and 87.1 µM with K562. With `O=C(Nc1cccc2nsnc12)c1cc2c(cc1Cl)Sc1nccn1S2(=O)=O`, the CC50 in the assay with NCI/ADR-RES is 83.2 µM. `Cc1ccc2cccc(NC(=O)c3cc4c(cc3Cl)Sc3nccn3S4(=O)=O)c2n1`: the CC50 in assay [1] is 55 µM.
